“Also recorded” adds a separate entry of the source.
Tests used:
Pf20S β5 = assay: Labeling of Pf20S active subunits by activity probe MV151 in Pf lysates; format: biochemical, P. falciparum; settings: 1 hour with inhibitor, then MV151 (2 μM) 1 hour
Protocol: Pf lysates were incubated with inhibitors at indicated concentrations for 1 hour prior to incubation with MV151 (2 μM) for an additional hour. SDS pages were scanned on a Typhoon fluorescent scanner. […] BTZ was used as a positive control.

Pf Gametocytes = assay: Gametocyte killing assay (DilC1(5), flow cytometry); format: cell-based; settings: Plasmodium falciparum; NF54 peg4-tdTomato, 72 hour incubation; read-out: EC50 against Pf Gametocytes
Protocol: Asexual replication of NF54 peg4-tdTomato parasites was eliminated by treating with 50 mM GlcNAc and 20 U/mL Heparin for 3 days. NF54 peg4-tdTomato parasites then were maintained using standard culture techniques. Gametocytes were induced synchronously according to Fivelman et al., “Improved Synchronous Production of Plasmodium Falciparum Gametocytes in Vitro,” Mol Biochemo Parasitol. 154(1):119-123 (2007), which is hereby incorporated by reference in its entirety. Asexual replication was eliminated by treating with 50 mM GlcNAc for 3 days. Gametocyte killing assays were setup on days 5 and 10 in triplicate 96-well format at 1% hematocrit and 2% gametocytemia. Compounds were setup in triplicate and serially diluted 3-fold. In addition, 6 solvent controls (DMSO) were distributed evenly across the plate. Following a 72 hour incubation, Stage III-IV (Day 5-7) and Stage IV-V (Day 10-12), (start the incubation in the afternoon on Day 5 and Day 10, take out plate for assay on Day8 and Day13 afternoon) cultures were stained with 16 nM Hoechst 33342 and 50 nM DilC1(5) for 30 min at 37 C. Using a Cytek DxP12 flow cytometer, gametocytemia was determined by gating for DNA+, hemozoin-high cells and gametocyte viability was inferred based on mitochondrial membrane potential-dependent accumulation of DilC1(5) for 2000-3000 gametocytes (Tanaka et al., “Potent Plasmodium Falciparum Gametocytocidal Activity of Diaminonaphthoquinones, Lead Antimalarial Chemotypes Identified in an Antimalarial Compound Screen,” Antimicrob. Agents Chemother. 2015, 59:1389 (2015), which is hereby incorporated by reference in its entirety). Mean DilC1(5) signal was normalized to solvent control and the overall minimum and used to calculate the EC50 (FIG. 3 and Table 4).

c-20S β5c = molecular target: T1, c-20S β5c (Homo sapiens, UniProt P28074); assay: Kinetic analysis, substrate titration of c-20S steady state velocities; format: biochemical
T1 construct: purchased Boston Biochem Inc
Protocol: FIGS. 1A-1E are graphs showing inhibition modality of PKS21004 against human proteasomes. Washout of c-20S from the preincubated c-20S and […] to recover the β5c activity (FIG. 1A). Substrate titration of hu i-20S (FIG. 1B) and c-20S (FIG. 1D) steady state velocities in the presence of PKS21004 at the concentrations indicated next to each curve. Data as in (FIG. 1B) were plotted double reciprocal in (FIG. 1C), and (FIG. 1D) in (FIG. 1E).
A washout experiment was used to confirm the reversibility of this class of proteasome inhibitors, as expected from their non-covalent chemistry.

Compound: CC(C)(C)NC(=O)C[C@H](NC(=O)CCc1ccccc1)C(=O)NCCNC(=O)c1cccc(-c2ccccc2)c1 [PKS21004]
- labeling of Pf20S β5 by MV151 (Pf20S β5): block labeling; also recorded: inhibited the labeling
- EC50 (Pf Gametocytes): 50 nM
- Ki (c-20S β5c): 550 nM
- α for c-20S (c-20S β5c; fit to equation for noncompetitive inhibitors): 0.98 and ≈ 0.57
- modality of inhibition of β5c (c-20S β5c; with respect to substrate): noncompetitive inhibitor
